Reference: patent US9597280B2, “Cosmetic compositions comprising microalgal oil” (TerraVia Holdings, Inc., priority 2013, dated 2017)

Columns and labels:
MatTek's EpiDerm tissue [1] = assay: Thymine dimer formation in EpiDerm skin tissue model after UVB exposure; assay type: cell-based, human; settings: positive control, topical 24 hours after UVB 300 mJ/cm2; mean ± standard deviation; significantly different from Untreated (p < 0.05)
Protocol: Oil was extracted from heterotrophic ally cultivated Chlorella protothecoides followed by refining, bleaching and deodorization. The oil was tested for its ability to prevent thymine dimerization in a skin tissue model upon exposure to UVB (ultraviolet light of the B type). The testing system used for this assay was MatTek's EpiDerm tissue, a skin model that consists of normal human-derived epidermal keratinocytes cultured to form a multilayered, highly differentiated model of the human epidermis. For this study, the tissues were exposed to UVB (300 mJ/cm2) and then treated topically for 24 hours with the test material. Following the treatment the DNA was extracted from the EpiDerm tissues and assayed for thymine dimer content. […] The primary antibody was then detected using a secondary antibody conjugated to a fluorescent dye. […] With this method, the fluorescence intensity of each sample is proportional to the amount of the thymine dimers present in the sample. […] UVB lamp intensity was measured using a UVX radiometer with a probe specific for UVB (detects 260-360 nm, max absorbance at 310 nm, calibrated at 310 nm) to determine exposure times required for the appropriate UVB dose. […] Extracted DNA was quantified via a fluorometric assay. […]

MatTek's EpiDerm tissue [2] = assay: MTT (viability) assay in EpiDerm skin tissue model after UVB exposure; assay type: cell-based, human; settings: positive control, topical 24 hours after UVB 300 mJ/cm2; mean ± standard deviation; significantly different from Untreated (p < 0.05)
Description: Oil was extracted from heterotrophically cultivated Chlorella protothecoides followed by refining, bleaching and deodorization. A skin tissue model was used to evaluate changes in tissue viability after exposure to UVB radiation. The testing system used for this assay was MatTek's EpiDerm tissue, a skin model that consists of normal human-derived epidermal keratinocytes cultured to form a multilayered, highly differentiated model of the human epidermis. For this study, the tissues were exposed to UVB (300 mJ/cm2) and then treated topically for 24 hours with the test material. Following the treatment tissue changes in tissue viability were determined using an MTT assay. […] Reduction of MTT by mitochondria in viable cells results in the formation of insoluble purple formazin crystals that are extracted from the cells with isopropanol and quantified spectrophotometrically. […] UVB lamp intensity was measured using a UVX radiometer with a probe specific for UVB (detects 260-360 nm, max absorbance at 310 nm, calibrated at 310 nm) to determine exposure times required for the appropriate UVB dose. […] After the extraction, a 200 μl sample of the isopropanol/MTT mixture was transferred to a 96-well plate and the absorbance of the sample was read at 540 nm with a plate reader using 200 μl of isopropanol as the blank. […] Values are expressed as means±standard deviation.

Cc1c(C)c2c(c(C)c1O)CCC(C)(C(=O)O)O2 (centres unmarked) [Trolox, 6-hydroxy-2,5,7,8-tetramethylchroman-2-carboxylic acid]
Thymine Dimer Formation, Corrected RFU (MatTek's EpiDerm tissue [1]): 5198 ± 513 RFU | Viability (Percent of Non-UVB Exposed) (MatTek's EpiDerm tissue [2]): 100 ± 1.3% of Non-UVB Exposed
